Where two headings read alike, the source gives them in different places.
Assays:
[1] = target: T1, AEA-DA lipid probe targets in Neuro2a cells (Mus musculus, UniProt P16014)
T1 sequence (P16014 21-677): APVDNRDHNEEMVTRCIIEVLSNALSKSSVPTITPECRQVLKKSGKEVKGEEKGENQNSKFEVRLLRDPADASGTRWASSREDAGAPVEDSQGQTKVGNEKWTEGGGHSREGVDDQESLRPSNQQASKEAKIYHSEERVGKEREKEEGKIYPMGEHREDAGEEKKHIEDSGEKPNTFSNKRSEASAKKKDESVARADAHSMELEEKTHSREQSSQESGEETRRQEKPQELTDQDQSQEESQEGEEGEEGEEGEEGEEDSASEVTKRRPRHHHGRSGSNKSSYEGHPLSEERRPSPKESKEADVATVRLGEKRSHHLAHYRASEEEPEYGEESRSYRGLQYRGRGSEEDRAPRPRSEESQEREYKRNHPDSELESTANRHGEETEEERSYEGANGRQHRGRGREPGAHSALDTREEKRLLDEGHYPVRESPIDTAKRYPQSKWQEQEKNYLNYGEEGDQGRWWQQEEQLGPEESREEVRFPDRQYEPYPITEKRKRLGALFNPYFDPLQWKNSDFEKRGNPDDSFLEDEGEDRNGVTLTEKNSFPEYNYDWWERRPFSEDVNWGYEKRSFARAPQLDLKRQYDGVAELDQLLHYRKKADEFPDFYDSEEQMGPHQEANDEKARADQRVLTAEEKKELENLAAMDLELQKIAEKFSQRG

[2] = target: T2, AEA-DA lipid probe targets in Neuro2a cells (Mus musculus, UniProt P42125)
T2 sequence (P42125 29-289): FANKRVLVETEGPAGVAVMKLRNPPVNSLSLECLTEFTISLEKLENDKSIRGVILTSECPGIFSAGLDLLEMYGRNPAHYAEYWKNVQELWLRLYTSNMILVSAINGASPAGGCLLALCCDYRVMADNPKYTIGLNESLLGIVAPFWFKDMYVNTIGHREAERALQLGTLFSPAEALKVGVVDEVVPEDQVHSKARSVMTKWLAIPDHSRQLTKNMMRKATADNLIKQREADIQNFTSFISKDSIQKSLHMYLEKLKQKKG

[3] = target: AEA-DA lipid probe targets in Neuro2a cells (Mus musculus, UniProt Q91V04)
[4] = target: T3, AEA-DA lipid probe targets in Neuro2a cells (Mus musculus, UniProt Q9WU62)
T3 sequence (Q9WU62 1-880): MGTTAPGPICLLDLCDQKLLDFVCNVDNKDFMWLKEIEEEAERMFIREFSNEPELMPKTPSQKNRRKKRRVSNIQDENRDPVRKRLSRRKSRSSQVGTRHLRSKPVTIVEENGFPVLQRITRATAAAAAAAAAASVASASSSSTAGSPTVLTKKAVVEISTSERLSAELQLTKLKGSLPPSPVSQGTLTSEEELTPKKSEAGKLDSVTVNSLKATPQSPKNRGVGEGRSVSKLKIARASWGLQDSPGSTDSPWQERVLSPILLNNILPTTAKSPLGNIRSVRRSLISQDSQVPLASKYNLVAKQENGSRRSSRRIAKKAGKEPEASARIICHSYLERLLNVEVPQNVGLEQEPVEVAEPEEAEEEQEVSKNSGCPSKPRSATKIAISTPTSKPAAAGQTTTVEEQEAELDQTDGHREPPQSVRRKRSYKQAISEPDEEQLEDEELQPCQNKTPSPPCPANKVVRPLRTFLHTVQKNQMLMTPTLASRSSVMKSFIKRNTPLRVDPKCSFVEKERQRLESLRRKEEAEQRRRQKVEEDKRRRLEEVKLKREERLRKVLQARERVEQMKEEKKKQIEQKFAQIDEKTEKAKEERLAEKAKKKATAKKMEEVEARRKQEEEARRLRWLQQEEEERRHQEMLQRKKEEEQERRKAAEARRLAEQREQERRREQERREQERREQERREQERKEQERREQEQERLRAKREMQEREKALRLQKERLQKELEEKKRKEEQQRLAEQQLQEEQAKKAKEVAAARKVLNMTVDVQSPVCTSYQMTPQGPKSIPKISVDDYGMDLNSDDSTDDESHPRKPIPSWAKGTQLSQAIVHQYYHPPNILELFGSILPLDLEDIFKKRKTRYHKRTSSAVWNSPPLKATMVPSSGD

[5] = target: T4, AEA-DA lipid probe targets in Neuro2a cells (Mus musculus, UniProt Q5U680)
T4 sequence (Q5U680 1-274): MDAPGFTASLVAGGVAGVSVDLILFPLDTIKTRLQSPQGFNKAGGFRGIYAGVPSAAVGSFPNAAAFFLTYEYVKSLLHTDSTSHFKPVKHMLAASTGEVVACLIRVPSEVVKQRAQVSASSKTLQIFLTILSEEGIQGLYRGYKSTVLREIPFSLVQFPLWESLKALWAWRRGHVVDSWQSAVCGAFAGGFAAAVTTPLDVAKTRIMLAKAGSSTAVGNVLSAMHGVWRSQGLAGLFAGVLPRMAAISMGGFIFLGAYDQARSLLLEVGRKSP

[6] = target: T5, AEA-DA lipid probe targets in Neuro2a cells (Mus musculus, UniProt P54071)
T5 sequence (P54071 40-452): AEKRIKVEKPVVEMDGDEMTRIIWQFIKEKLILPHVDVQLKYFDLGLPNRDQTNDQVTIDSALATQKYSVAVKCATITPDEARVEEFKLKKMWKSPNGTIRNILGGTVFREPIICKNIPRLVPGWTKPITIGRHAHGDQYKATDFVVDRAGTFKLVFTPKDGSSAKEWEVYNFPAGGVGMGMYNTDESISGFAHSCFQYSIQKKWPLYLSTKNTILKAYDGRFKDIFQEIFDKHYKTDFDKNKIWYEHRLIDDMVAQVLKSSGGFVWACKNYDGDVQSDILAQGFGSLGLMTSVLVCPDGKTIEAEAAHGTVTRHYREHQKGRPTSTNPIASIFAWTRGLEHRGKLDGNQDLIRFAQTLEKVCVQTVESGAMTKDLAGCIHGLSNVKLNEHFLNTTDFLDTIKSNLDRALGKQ

[7] = target: AEA-DA lipid probe targets in Neuro2a cells (Mus musculus, UniProt P36536)
AEA-DA lipid probe targets in Neuro2a cells (Mus musculus, UniProt P36536), sequence (P36536 whole entry): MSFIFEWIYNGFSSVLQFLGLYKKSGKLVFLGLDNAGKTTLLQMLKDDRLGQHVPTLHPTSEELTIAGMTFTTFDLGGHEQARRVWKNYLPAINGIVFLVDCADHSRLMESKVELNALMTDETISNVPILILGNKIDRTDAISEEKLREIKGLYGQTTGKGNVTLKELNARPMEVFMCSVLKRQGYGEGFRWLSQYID

AEA-DA lipid probe targets in Neuro2a cells (Mus musculus, UniProt Q91V04), sequence (Q91V04 whole entry): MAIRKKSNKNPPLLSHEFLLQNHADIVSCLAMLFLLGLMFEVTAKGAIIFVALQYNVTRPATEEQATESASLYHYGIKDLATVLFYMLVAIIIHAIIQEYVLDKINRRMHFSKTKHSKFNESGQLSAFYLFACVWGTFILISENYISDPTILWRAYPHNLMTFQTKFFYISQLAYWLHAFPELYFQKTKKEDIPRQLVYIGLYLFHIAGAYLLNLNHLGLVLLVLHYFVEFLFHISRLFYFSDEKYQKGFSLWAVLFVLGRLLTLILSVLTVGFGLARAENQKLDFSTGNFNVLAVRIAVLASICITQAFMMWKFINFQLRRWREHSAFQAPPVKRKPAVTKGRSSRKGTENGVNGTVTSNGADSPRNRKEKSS

CCCCC/C=C\C/C=C\C/C=C\C/C=C\CCCC(=O)NCCO [AEA, anandamide, reference compound]
SILAC ratio Chgb ([1]; competitor 200 μM): 1.2 | SILAC ratio, Eci1 ([2]; competitor 200 μM): 2.0 | SILAC ratio, Tram1 ([3]; competitor 200 μM): 2.9 | SILAC ratio Incenp ([4]; competitor 200 μM): 1.4 | SILAC ratio, Slc25a26 ([5]; competitor 200 μM): 1.0 | SILAC ratio Idh2 ([6]; competitor 200 μM): 1.2

O=C(/C=C/c1cccnc1)NCCCCC1CCN(C(=O)c2ccccc2)CC1 [FK-866, reference compound]
SILAC ratio Chgb ([1]; competitor 25 μM): 0.9 | SILAC ratio, Eci1 ([2]; competitor 25 μM): 1.2 | SILAC ratio, Sar1a ([7]; competitor 25 μM): 1.0 | SILAC ratio, Tram1 ([3]; competitor 25 μM): 1.2 | SILAC ratio Incenp ([4]; competitor 25 μM): 0.8 | SILAC ratio, Slc25a26 ([5]; competitor 25 μM): 0.8 | SILAC ratio Idh2 ([6]; competitor 25 μM): 1.2

CN1CCN(C(=O)c2c(-c3ccccc3)c3cc([N+](=O)[O-])ccc3n2C)CC1 [KML110, (1-Methyl-5-nitro-3-phenyl-1H-indol-2-yl)(4-methylpiperazin-1-yl)methanone]
SILAC ratio Chgb ([1]; competitor 25 μM): 1.1 | SILAC ratio, Eci1 ([2]; competitor 25 μM): 1.5 | SILAC ratio, Sar1a ([7]; competitor 25 μM): 1.4 | SILAC ratio, Tram1 ([3]; competitor 25 μM): 1.7 | SILAC ratio Incenp ([4]; competitor 25 μM): 1.2 | SILAC ratio, Slc25a26 ([5]; competitor 25 μM): 0.7 | SILAC ratio Idh2 ([6]; competitor 25 μM): 1.3

CN1CCN(C(=O)c2[nH]c3ccc([N+](=O)[O-])cc3c2-c2ccccc2)CC1 [MJN228, (4-Methylpiperazin-1-yl)(5-nitro-3-phenyl-1H-indol-2-yl)methanone]
SILAC ratio Chgb ([1]; competitor 10 μM): 1.2 | SILAC ratio Chgb ([1]; competitor 25 μM): 0.9 | SILAC ratio Chgb ([1]; competitor 50 μM): 0.4 | SILAC ratio Chgb ([1]; competitor 100 μM): 0.4 | SILAC ratio, Eci1 ([2]; competitor 10 μM): 1.4 | SILAC ratio, Eci1 ([2]; competitor 25 μM): 2.0 | SILAC ratio, Eci1 ([2]; competitor 50 μM): 2.4 | SILAC ratio, Eci1 ([2]; competitor 100 μM): 3.8 | SILAC ratio, Sar1a ([7]; competitor 10 μM): 1.3 | SILAC ratio, Sar1a ([7]; competitor 25 μM): 1.7 | SILAC ratio, Sar1a ([7]; competitor 50 μM): 1.7 | SILAC ratio, Sar1a ([7]; competitor 100 μM): 2.2 | SILAC ratio, Tram1 ([3]; competitor 10 μM): 1.3 | SILAC ratio, Tram1 ([3]; competitor 25 μM): 1.8 | SILAC ratio, Tram1 ([3]; competitor 50 μM): 1.9 | SILAC ratio, Tram1 ([3]; competitor 100 μM): 5.4 | SILAC ratio Incenp ([4]; competitor 10 μM): 1.4 | SILAC ratio Incenp ([4]; competitor 25 μM): 1.2 | SILAC ratio Incenp ([4]; competitor 50 μM): 1.8 | SILAC ratio Incenp ([4]; competitor 100 μM): 1.7 | SILAC ratio, Slc25a26 ([5]; competitor 10 μM): 0.9 | SILAC ratio, Slc25a26 ([5]; competitor 25 μM): 0.7 | SILAC ratio, Slc25a26 ([5]; competitor 50 μM): 0.3 | SILAC ratio, Slc25a26 ([5]; competitor 100 μM): 0.4 | SILAC ratio Idh2 ([6]; competitor 10 μM): 1.3 | SILAC ratio Idh2 ([6]; competitor 25 μM): 1.4 | SILAC ratio Idh2 ([6]; competitor 50 μM): 1.6 | SILAC ratio Idh2 ([6]; competitor 100 μM): 1.6

C=CCN(C)CCCCCCOc1ccc(C(=O)c2ccc(Br)cc2)c(F)c1 [Ro 48-8071, reference compound]
SILAC ratio Chgb ([1]; competitor 25 μM): 0.7 | SILAC ratio, Eci1 ([2]; competitor 25 μM): 0.9 | SILAC ratio, Sar1a ([7]; competitor 25 μM): 1.1 | SILAC ratio, Tram1 ([3]; competitor 25 μM): 1.8 | SILAC ratio, Slc25a26 ([5]; competitor 25 μM): 0.7 | SILAC ratio Idh2 ([6]; competitor 25 μM): 0.9
